Measured values taken from the supplement of paper PMC10307832.

Columns and labels:
Test in all cases: relative viability (nuclei count vs DMSO), 5 days (fraction); higher = more cells survive
[1] = test system: EKVX
Outline: (§1)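 The day after seeding in 1536-well plates, lung cancer cell lines were treated by pin tool with a single drug, or with a fixed anchor-drug dose together with five library-drug doses (not always all listed) in √10 steps. After 5 days, a combined fix-and-stain solution (final 0.05% Triton X-100, 1% formaldehyde, 1 ug/ml Hoechst) was added. Nuclei counted on 4× images gave relative viability as treated counts over vehicle counts, reported as the median of duplicate plates.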

[2] = test system: LCLC-97TM1
Outline: as §1

[3] = test system: NCI-H1437
Outline: as §1

[4] = test system: NCI-H1650
Outline: as §1

[5] = test system: NCI-H1666
Outline: as §1

[6] = test system: NCI-H1792
Outline: as §1

[7] = test system: NCI-H1915
Outline: as §1

[8] = test system: NCI-H1975
Outline: as §1

[9] = test system: NCI-H2342
Outline: as §1

[10] = test system: NCI-H23
Outline: as §1

[11] = test system: NCI-H322M
Outline: as §1

[12] = test system: NCI-H358
Outline: as §1

[13] = test system: NCI-H441
Outline: as §1

[14] = test system: NCI-H460
Outline: as §1

[15] = test system: NCI-H520
Outline: as §1

[16] = test system: NCI-H522
Outline: as §1

[17] = test system: NCI-H647
Outline: as §1

[18] = test system: NCI-H661
Outline: as §1

[19] = test system: NCI-H727
Outline: as §1

[20] = test system: NCI-H838
Outline: as §1

[21] = test system: PC-3 [JPC-3]
Outline: as §1

[22] = test system: SK-LU-1
Outline: as §1

**Q.** Cc1csc(=NC2CCCCC2)n1/N=C/c1ccc(O)c(O)c1O [MIM1] + CC(=O)c1c(C)c2cnc(Nc3ccc(N4CCNCC4)cn3)nc2n(C2CCCC2)c1=O [Palbociclib] (partner 0.5 µM) was tested. Which relative viability ([1]; first compound 0.2 µM) did it give?
**A.** 0.332

**Q.** What about the relative viability ([1]; first compound 0.6325 µM) of the same compound?
**A.** 0.367

**Q.** And the relative viability ([1]; first compound 2 µM)?
**A.** 0.339

**Q.** And the relative viability ([1]; first compound 6.325 µM)?
**A.** 0.312

**Q.** What about the relative viability ([1]; first compound 20 µM) of the same compound?
**A.** 0.286

**Q.** And the relative viability ([2]; first compound 0.2 µM)?
**A.** 0.22

**Q.** And the relative viability ([2]; first compound 0.6325 µM)?
**A.** 0.22

**Q.** And the relative viability ([2]; first compound 2 µM)?
**A.** 0.217

**Q.** What about the relative viability ([2]; first compound 6.325 µM) of the same compound?
**A.** 0.169

**Q.** And the relative viability ([2]; first compound 20 µM)?
**A.** 0.0835

**Q.** And the relative viability ([3]; first compound 0.2 µM)?
**A.** 0.305

**Q.** And the relative viability ([3]; first compound 0.6325 µM)?
**A.** 0.35

**Q.** And the relative viability ([3]; first compound 2 µM)?
**A.** 0.312

**Q.** What about the relative viability ([3]; first compound 6.325 µM) of the same compound?
**A.** 0.232

**Q.** And the relative viability ([3]; first compound 20 µM)?
**A.** 0.149

**Q.** And the relative viability ([4]; first compound 0.2 µM)?
**A.** 0.446

**Q.** And the relative viability ([4]; first compound 0.6325 µM)?
**A.** 0.316

**Q.** What about the relative viability ([4]; first compound 2 µM) of the same compound?
**A.** 0.256

**Q.** And the relative viability ([4]; first compound 6.325 µM)?
**A.** 0.137

**Q.** And the relative viability ([4]; first compound 20 µM)?
**A.** 0.136

**Q.** And the relative viability ([5]; first compound 0.2 µM)?
**A.** 0.668

**Q.** What about the relative viability ([5]; first compound 0.6325 µM) of the same compound?
**A.** 0.608

**Q.** And the relative viability ([5]; first compound 2 µM)?
**A.** 0.611

**Q.** What about the relative viability ([5]; first compound 6.325 µM) of the same compound?
**A.** 0.647

**Q.** What about the relative viability ([5]; first compound 20 µM) of the same compound?
**A.** 0.67

**Q.** And the relative viability ([6]; first compound 0.2 µM)?
**A.** 0.659

**Q.** What about the relative viability ([6]; first compound 0.6325 µM) of the same compound?
**A.** 0.622

**Q.** And the relative viability ([6]; first compound 2 µM)?
**A.** 0.644

**Q.** What about the relative viability ([6]; first compound 6.325 µM) of the same compound?
**A.** 0.475

**Q.** And the relative viability ([6]; first compound 20 µM)?
**A.** 0.56

**Q.** What about the relative viability ([7]; first compound 0.2 µM) of the same compound?
**A.** 0.527

**Q.** What about the relative viability ([7]; first compound 0.6325 µM) of the same compound?
**A.** 0.529

**Q.** What about the relative viability ([7]; first compound 2 µM) of the same compound?
**A.** 0.497

**Q.** And the relative viability ([7]; first compound 6.325 µM)?
**A.** 0.395

**Q.** And the relative viability ([7]; first compound 20 µM)?
**A.** 0.181

**Q.** What about the relative viability ([8]; first compound 0.2 µM) of the same compound?
**A.** 0.529

**Q.** What about the relative viability ([8]; first compound 0.6325 µM) of the same compound?
**A.** 0.67

**Q.** What about the relative viability ([8]; first compound 2 µM) of the same compound?
**A.** 0.519

**Q.** And the relative viability ([8]; first compound 6.325 µM)?
**A.** 0.256

**Q.** And the relative viability ([8]; first compound 20 µM)?
**A.** 0.169

**Q.** What about the relative viability ([9]; first compound 0.2 µM) of the same compound?
**A.** 0.525

**Q.** And the relative viability ([9]; first compound 0.6325 µM)?
**A.** 0.543

**Q.** And the relative viability ([9]; first compound 2 µM)?
**A.** 0.573

**Q.** What about the relative viability ([9]; first compound 6.325 µM) of the same compound?
**A.** 0.515

**Q.** And the relative viability ([9]; first compound 20 µM)?
**A.** 0.57

**Q.** And the relative viability ([10]; first compound 0.2 µM)?
**A.** 0.518

**Q.** And the relative viability ([10]; first compound 0.6325 µM)?
**A.** 0.51

**Q.** And the relative viability ([10]; first compound 2 µM)?
**A.** 0.413

**Q.** What about the relative viability ([10]; first compound 6.325 µM) of the same compound?
**A.** 0.19

**Q.** What about the relative viability ([10]; first compound 20 µM) of the same compound?
**A.** 0.194

**Q.** And the relative viability ([11]; first compound 0.2 µM)?
**A.** 0.466

**Q.** And the relative viability ([11]; first compound 0.6325 µM)?
**A.** 0.466

**Q.** And the relative viability ([11]; first compound 2 µM)?
**A.** 0.488

**Q.** And the relative viability ([11]; first compound 6.325 µM)?
**A.** 0.459

**Q.** What about the relative viability ([11]; first compound 20 µM) of the same compound?
**A.** 0.384

**Q.** What about the relative viability ([12]; first compound 0.2 µM) of the same compound?
**A.** 0.145

**Q.** And the relative viability ([12]; first compound 0.6325 µM)?
**A.** 0.153

**Q.** And the relative viability ([12]; first compound 2 µM)?
**A.** 0.122

**Q.** And the relative viability ([12]; first compound 6.325 µM)?
**A.** 0.118

**Q.** What about the relative viability ([12]; first compound 20 µM) of the same compound?
**A.** 0.128

**Q.** What about the relative viability ([13]; first compound 0.2 µM) of the same compound?
**A.** 0.273

**Q.** And the relative viability ([13]; first compound 0.6325 µM)?
**A.** 0.266

**Q.** What about the relative viability ([13]; first compound 2 µM) of the same compound?
**A.** 0.205

**Q.** And the relative viability ([13]; first compound 6.325 µM)?
**A.** 0.186

**Q.** What about the relative viability ([13]; first compound 20 µM) of the same compound?
**A.** 0.114

**Q.** And the relative viability ([14]; first compound 0.2 µM)?
**A.** 0.219

**Q.** What about the relative viability ([14]; first compound 0.6325 µM) of the same compound?
**A.** 0.169

**Q.** And the relative viability ([14]; first compound 2 µM)?
**A.** 0.106

**Q.** What about the relative viability ([14]; first compound 6.325 µM) of the same compound?
**A.** 0.0475

**Q.** And the relative viability ([14]; first compound 20 µM)?
**A.** 0.027

**Q.** What about the relative viability ([15]; first compound 0.2 µM) of the same compound?
**A.** 0.195

**Q.** What about the relative viability ([15]; first compound 0.6325 µM) of the same compound?
**A.** 0.239

**Q.** And the relative viability ([15]; first compound 2 µM)?
**A.** 0.201

**Q.** And the relative viability ([15]; first compound 6.325 µM)?
**A.** 0.22

**Q.** What about the relative viability ([15]; first compound 20 µM) of the same compound?
**A.** 0.183

**Q.** And the relative viability ([16]; first compound 0.2 µM)?
**A.** 0.819

**Q.** And the relative viability ([16]; first compound 0.6325 µM)?
**A.** 0.921

**Q.** What about the relative viability ([16]; first compound 2 µM) of the same compound?
**A.** 0.932

**Q.** And the relative viability ([16]; first compound 6.325 µM)?
**A.** 1.13

**Q.** What about the relative viability ([16]; first compound 20 µM) of the same compound?
**A.** 0.61

**Q.** What about the relative viability ([17]; first compound 0.2 µM) of the same compound?
**A.** 0.395

**Q.** And the relative viability ([17]; first compound 0.6325 µM)?
**A.** 0.404

**Q.** And the relative viability ([17]; first compound 2 µM)?
**A.** 0.381

**Q.** And the relative viability ([17]; first compound 6.325 µM)?
**A.** 0.338

**Q.** What about the relative viability ([17]; first compound 20 µM) of the same compound?
**A.** 0.0937

**Q.** And the relative viability ([18]; first compound 0.2 µM)?
**A.** 0.404

**Q.** And the relative viability ([18]; first compound 0.6325 µM)?
**A.** 0.42

**Q.** What about the relative viability ([18]; first compound 2 µM) of the same compound?
**A.** 0.348

**Q.** And the relative viability ([18]; first compound 6.325 µM)?
**A.** 0.33

**Q.** And the relative viability ([18]; first compound 20 µM)?
**A.** 0.301

**Q.** And the relative viability ([19]; first compound 0.2 µM)?
**A.** 0.634

**Q.** What about the relative viability ([19]; first compound 0.6325 µM) of the same compound?
**A.** 0.686

**Q.** And the relative viability ([19]; first compound 2 µM)?
**A.** 0.605

**Q.** What about the relative viability ([19]; first compound 6.325 µM) of the same compound?
**A.** 0.546

**Q.** And the relative viability ([19]; first compound 20 µM)?
**A.** 0.472

**Q.** What about the relative viability ([20]; first compound 0.2 µM) of the same compound?
**A.** 0.202

**Q.** What about the relative viability ([20]; first compound 0.6325 µM) of the same compound?
**A.** 0.26

**Q.** And the relative viability ([20]; first compound 2 µM)?
**A.** 0.216

**Q.** And the relative viability ([20]; first compound 6.325 µM)?
**A.** 0.169

**Q.** And the relative viability ([20]; first compound 20 µM)?
**A.** 0.168

**Q.** What about the relative viability ([21]; first compound 0.2 µM) of the same compound?
**A.** 0.544

**Q.** What about the relative viability ([21]; first compound 0.6325 µM) of the same compound?
**A.** 0.538

**Q.** What about the relative viability ([21]; first compound 2 µM) of the same compound?
**A.** 0.493

**Q.** And the relative viability ([21]; first compound 6.325 µM)?
**A.** 0.446

**Q.** And the relative viability ([21]; first compound 20 µM)?
**A.** 0.343

**Q.** What about the relative viability ([22]; first compound 0.2 µM) of the same compound?
**A.** 0.442

**Q.** And the relative viability ([22]; first compound 0.6325 µM)?
**A.** 0.397

**Q.** And the relative viability ([22]; first compound 2 µM)?
**A.** 0.368

**Q.** And the relative viability ([22]; first compound 6.325 µM)?
**A.** 0.418

**Q.** And the relative viability ([22]; first compound 20 µM)?
**A.** 0.307
